Reference: PubChem BioAssay (NCI)
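Grown in 96-well plates, cells were treated for 48 hours with each compound at five concentrations. Insufficient inhibition: endpoint recorded as highest concentration tested. GI50 is the concentration that inhibits growth by half. At the TGI there is no net growth.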

What was measured:
Assay in all cases: inhibition of tumour cell growth, NCI panel, 48 h
SN12C renal = system: SN12C renal
HCC-2998 colon = system: HCC-2998 colon
A498 renal = system: A498 renal
SK-OV-3 ovarian = system: SK-OV-3 ovarian
NCI/ADR-RES ovarian = system: NCI/ADR-RES ovarian
HOP-62 NSCLC = system: HOP-62 NSCLC
MDA-MB-231 breast = system: MDA-MB-231 breast
DU-145 prostate = system: DU-145 prostate
SW-620 colon = system: SW-620 colon
SNB-19 CNS = system: SNB-19 CNS

SMILES | TGI (SN12C renal) [µM] | TGI (HCC-2998 colon) [µM] | TGI (A498 renal) [µM] | TGI (SK-OV-3 ovarian) [µM] | TGI (NCI/ADR-RES ovarian) [µM] | TGI (HOP-62 NSCLC) [µM] | TGI (MDA-MB-231 breast) [µM] | TGI (DU-145 prostate) [µM] | TGI (SW-620 colon) [µM] | TGI (SNB-19 CNS) [µM] | GI50 (DU-145 prostate) [nM]
CC1(C)OC[C@@H](/C=C\CCO[Si](c2ccccc2)(c2ccccc2)C(C)(C)C)N1C(=O)c1ccccc1 | 29.9 | 21.4 | 44.8 | > 100 | > 100 | > 100 | 38.4 | 95.9 | > 100 | > 100 | 
O=C1c2cc(Cl)ccc2-n2c(noc2=O)C2CSCN12 (centres undefined) | > 100 | > 100 | > 100 | > 100 | > 100 | > 100 | > 100 | > 100 | > 100 | > 100 | 
O=c1oc2ccccc2cc1-c1nc2ccc([N+](=O)[O-])cc2o1 | > 100 | > 100 | > 100 | > 100 | > 100 | > 100 | > 100 | > 100 | > 100 | 68.5 | 
CC1=NN(c2nc(N)nc(/C(C#N)=C/c3ccncc3)n2)C(C)(C)C1 |  | > 100 | > 100 | > 100 | > 100 | > 100 | > 100 | > 100 | > 100 | > 100 | 
CC(=O)N(C(C)=O)n1c(Cc2ccc(Cl)cc2)nn(C(C)=O)c1=O | > 100 | > 100 | > 100 | > 100 | > 100 | > 100 | > 100 | > 100 | > 100 | > 100 | 
COc1ccc(Cn2nc(OCc3ccccn3)c3cc([N+](=O)[O-])ccc32)cc1 | > 100 | > 100 | > 100 | > 100 | > 100 | > 100 | > 100 | > 100 | > 100 | > 100 | 
O=C(C[C@@H]1NCCC[C@H]1O)Cn1cnc2cc(Br)c(Cl)cc2c1=O | 0.0726 | 0.352 | 0.316 | 0.813 | 0.603 | 1.01 | 0.285 | 0.0919 | 0.209 | 0.484 | 
O=C(Nc1cccc2nsnc12)c1cc2c(cc1Cl)Sc1nccn1S2(=O)=O | 31.1 | 11.7 | 26.5 | > 100 | 42.6 | 4.37 | 21.9 | 3.17 | > 60.7 | 24.8 | 1740
COc1cc(C2SCC(=O)N2NC(=O)c2ccc(NC(C)=O)cc2)cc(OC)c1OC (centres undefined) | > 100 | > 100 | > 100 | > 100 | > 100 | > 100 | > 100 | > 100 | > 100 | > 100 | 
O=C(c1ccccc1F)c1c(NCc2ccccc2)c(=O)c1=O | > 100 | > 100 | > 100 | > 100 | > 100 | > 100 | > 100 | > 100 | > 100 | > 100 | 
C=C[C@]1(C)CC[C@]2(C)C(CC[C@@]3(C)C2C[C@H](O)[C@H](O)[C@@]3(C)O)C1 (some centres undefined) | > 100 | > 100 | > 100 | > 100 | > 100 | > 100 | > 100 | > 100 | > 100 | > 100 | 
CC1CN=C(c2cccc(OCc3ccc(COc4cccc(C5=NCC(C)N5)c4)cc3)c2)N1 (centres undefined) | > 100 | 48.4 | > 100 | > 100 | > 100 | > 100 | > 100 | > 100 | > 100 | > 100 | 
CCOC(=O)c1cc(-c2ccc(OC)c(OC)c2)c[nH]1 | > 10 | > 10 | > 10 | > 10 | > 10 | > 10 | > 10 | > 10 |  | > 10 | 
COc1ccc(/C=N/Nc2[nH]c(=S)nc3[nH]ncc23)cc1 | > 100 | > 100 | > 100 | > 100 | > 100 | 77.9 | > 100 | > 100 | > 100 | 59.2 | 
O=C(Cn1c2ccc(Br)cc2c2nc3ccccc3nc21)NC1CCCCC1 | > 100 | > 100 | > 100 | > 100 | > 100 | > 100 | > 100 | > 100 | > 100 | > 100 | 
Oc1c2cccc1Cc1cccc3c1OCCOCCOCCOCCOc1c(cccc1Cc1cccc(c1O)C3)C2 | > 100 | > 100 | > 100 | > 100 | > 100 | > 100 | > 100 | > 100 | > 100 | > 100 | 
CN(C)c1ccc(/C=C(\NC(=O)c2ccccc2)C(=O)Nc2ccccc2C(=O)NN2C(=O)CSC2c2ccc(N(C)C)cc2)cc1 (centres undefined) | > 100 | 21.4 | > 100 | > 100 | > 100 | > 100 | > 100 | > 100 | > 100 | > 100 | 
N#Cc1c(=O)c2cccnc2n2c1[nH]c1ccccc12 | > 100 | > 100 | > 100 | > 100 | > 100 | > 100 | > 100 | > 100 | > 100 | > 100 | 
Cc1[nH]c(=O)nc(N/N=C/c2ccc(Cl)c(Cl)c2)c1C(=O)Nc1ccc(Cl)c(Cl)c1 | > 46.5 | > 100 | 7.92 | 26.9 | > 47.6 | 24.8 | 15.2 | > 41.2 | > 30 | 32 | 
O=C1c2cc3c(cc2CC12Cc1cc4c(cc1C2)CCC4)CCC3 | > 100 | > 100 | > 100 | > 100 | > 100 | > 100 | > 100 | > 100 | > 100 | > 100 | 
CCOC(=O)CCC(NC(=O)OCc1ccccc1)C(=O)NNC(=O)OC(C)(C)C (centres undefined) | > 100 | > 100 | > 100 | > 100 | > 100 | > 100 | > 100 | > 100 | > 100 | > 100 | 
